“Also recorded” adds a separate entry of the source.
Key:
[1] = tested on: angiotensin II-infused rats; settings: administration of fasudil; cited from earlier work
ROCK1 = ROCK1 cleavage in doxorubicin-treated cultured neonatal rat cardiomyocytes (Western blot); type: cell-based
From the text: To determine if ROCK1 is cleaved by caspase 3 in apoptotic cardiomyocytes, the present inventors subjected cultured rat neonatal cardiomyocytes to doxorubicin treatment, which is a potent apoptotic inducer. The 130 kDa cleavage fragment of ROCK1 was detected in doxorubicin-treated myocytes as well as the cleaved PARP. In contrast, cleavage of ROCK2 was not observed. In addition, cleavage of ROCK1 is caspase 3-dependent, as the 130 kDa species was not detected in the presence of caspase 3 inhibitor, Z-VAD.
(§1) Cell culture, plasmid constructs, and recombinant adenoviruses. Neonatal rat cardiomyocytes were isolated and cultured in DMEM/F12 medium (1:1) with 10% horse serum (DF10); cells were ready for transfection or virus infection 40 hours after plating. For immunostaining, cells were cultured on pre-coated (with 0.2% gelatin) coverslips. Transfections were performed using LipofectAMINE 2000 (Invitrogen) with Opti-MEM I Reduced Serum Medium (Invitrogen). After 6 hr or O/N, cells were cultured in DF10. With human embryonic kidney (HEK) A293T cells, cells were cultured in DMEM with 10% fetal bovine serum. The cDNA for full length human ROCK-1 cloned into the pCAG-myc vector (pCAG-ROCK-1) was kindly provided by Dr. Narumiya. All ROCK-1 and mutant constructs were tagged with a Myc epitope at the amino-terminus. The Asp718-MscI cDNA fragment encoding ROCKΔ1 mutant (residues 1-1080) was also cloned into the pCAG-myc vector (pCAG-ROCKΔ1) (Ishizaki et al., 1997). A signal lysine at residue 105 was replaced by alanine to generate a kinase deficient mutant, pCAG-ROCK-1KD. The adenoviral vector, Ad-G/iCasp 3, expressing conditional caspase 3, was generously provided by Drs. David Spencer and Kevin Slawin at Baylor College of Medicine. Addition of CID, AP20187 (50 nM, 24 hr), provoked the aggregation and activation of caspase 3 as well as rapid apoptosis (Shariat et al., 2001; Mallet et al., 2002).
Western blot and Malachite green assay. Anti-ROCK-1, caspase 3, PARP, His, α-actin antibodies (Santa Cruz), anti-phospho-AKTser473 (Cell Signaling) and anti-RTEN (Upstate) were purchased. Protein samples for Western blot were prepared and separated as described earlier (Chang et al., 2000). Even loadings were confirmed by Ponceau staining and antibody probed for actin. PTEN activity was evaluated by Malachite green assay (Upstate). 500 μg of cell lysate protein was used for immunoprecipitation.

[2] = tested on: conditional caspase 3 (iCasp3); test: ROCK1 cleavage in cardiomyocytes infected with Ad-G/iCasp3 (conditional caspase 3) and treated with CID; type: cell-based, rat; settings: for 130 kDa cleavage fragment of ROCK1: cardiomyocytes infected with Ad-G/iCasp3 and treated with CID
From the text: To analyze direct effect of caspase 3 activation on ROCK1 cleavage, the present inventors introduced a conditional caspase 3 via an adenoviral-mediated expression system in cultured rat neonatal cardiomyocytes. The adenoviral vector, Ad-G/iCasp3, has been described previously (Shariat et al., 2001; Mallet et al., 2002). This vector expresses a conditional caspase 3 (iCasp3), in which the human caspase 3 was fused to a modified FK506-binding domain, containing a binding site for a non-toxic chemical inducer of dimerization (CID), AP20187. Addition of CID leads to the aggregation and activation this caspase, and a rapid apoptosis in prostate cancer cells (Shariat et al., 2001; Mallet et al., 2002). This is depicted in FIG. 8C.
as §1, with “Addition of CID, AP20187 (50 nM, 24 hr), provoked the aggregation and activation of caspase 3 as well as rapid apoptosis (Shariat et al., 2001; Mallet et al., 2002).” left out

[3] = tested on: human growth hormone (hGH) transgene; test: Cardiac-specific RU486-inducible gene-switch expression of human growth hormone in bi-transgenic mice; type: in vivo, mouse; settings: after 4 days of administration, dose-dependent, estimated
Experimental: Expression of the transgene is induced in all 4 chambers of the bi-transgenic hearts by administration of RU486 for 4 days. […] The serum level of hGH was measured by radioimmunoassay.

caspase 3 = test: Ceramide-induced caspase 3 activation and apoptosis in cardiomyocytes (caspase 3 sensor, fluorescent staining); type: cell-based, rat; settings: without siRNA treatment
Experimental: Apoptosis assay and immunofluorescence analysis. Apoptosis was evaluated using caspase 3 activity and poly(ADP-ribose) polymerase (PARP) cleavage with Western blot in human and mouse heart tissues. With regard to apoptotic cultured neonatal cardiomyocytes, a caspase 3 sensor (BD Biosciences) was introduced to detect the onset of caspase 3 activity (FIG. 9). The vector encodes EYFP (enhanced yellow fluorescent protein) fused with NES (nuclear export signal) and NLS (nuclear localization signal). A caspase 3 specific cleavage site is located between EYFP and NES. […] Upon induction of apoptosis, the export signal is removed by active caspase 3, which triggers the redistribution of EYFP from the cytosol to the nucleus via NLS. The quantification was performed by counting the number of transfected cells with the nuclear localization of fluorescent fusion protein over the total transfected cells. Alexa Fluor 594 phalloidin staining (Molecular Probes) and DAPI staining were applied for F-actin and cellular nuclei visualization, respectively.
siRNAs application for ROCK-1 and PTEN knockdown and ceramide-induced apoptosis. To knockdown ROCK-1 expression in neonatal rat cardiomyocytes, 100 nM siRNA (Ambion) was used with co-transfection of caspase 3 sensor vector as described above. Same amount of siRNA specific for PTEN (Ambion) was applied to human HEK cells. […]

[4] = tested on: myeline basic protein (MBP) kinase (MBP-kinase); test: Kinase-Glo luminescent kinase assay; type: biochemical; settings: SRF-N as substrate, ATP
Experimental: In a particular embodiment, the Kinase-Glo luminescent kinase assay from Promega (Madison, Wis.) is employed, which comprises a method of measuring kinase activity by quantifying the amount of ATP remaining in solution following a kinase reaction. […] In additional embodiments, the Km and/or kcat for SRF-N against MBP-Kinase and the IC50 or Ki for PH domain are measured, such as by standard methods in the art.
FIG. 25B illustrates the role of ROCK in processing of its substrates in the presence of ATP.

early chick embryos = settings: treated early chick embryos; cited from earlier work
protein kinases A and C = settings: lower affinity than that for Rho kinase; cited from earlier work
[5] = tested on: Dahl salt-sensitive hypertensive rats; settings: administration to Dahl salt-sensitive hypertensive rats; cited from earlier work
[6] = doxorubicin-treated myocytes, Western blot

In the case of `O=S(=O)(c1cccc2cnccc12)N1CCCNCC1` [fasudil], the “effect on angiotensin II-induced cardiovascular changes” value [1] is listed as “suppresses angiotensin II-induced coronary vascular hypertrophy, endothelial dysfunction and cardiomyocyte hypertrophy”.

With `COc1cccc2c1C(=O)c1c(O)c3c(c(O)c1C2=O)C[C@@](O)(C(=O)CO)C[C@@H]3O[C@H]1C[C@H](N)[C@H](O)[C@H](C)O1` [doxorubicin] the “cleavage of ROCK2” value (ROCK1; doxorubicin-treated myocytes) was “not observed”, the “130 kDa cleavage fragment of ROCK1” value (ROCK1; [6]) was “detected; also recorded: revealed cleavages” and the “cleaved PARP” value (ROCK1; [6]) was “detected; also recorded: revealed cleavages”. For the same molecule, the “cleavage of SRF” value (ROCK1; doxorubicin-treated neonatal cardiomyocytes, data not shown) was “not detectable”.

For `CC[C@H](C(=O)N1CCCC[C@H]1C(=O)O[C@H](CCc1ccc(OC)c(OC)c1)c1cccc(OCC(=O)NCC(CNC(=O)COc2cccc([C@@H](CCc3ccc(OC)c(OC)c3)OC(=O)[C@@H]3CCCCN3C(=O)[C@@H](CC)c3cc(OC)c(OC)c(OC)c3)c2)CN(C)C)c1)c1cc(OC)c(OC)c(OC)c1` [AP20187], the “cleavage of SRF” value ([2]; Ad-G/iCasp3 in the presence of CID, data not shown) was “not detectable”, the “130 kDa cleavage fragment of ROCK1” value [2] was “detected” and the “130 kDa cleavage fragment of ROCK1” value ([2]; listed as CID) was “cleavage of ROCK-1 only in the presence of CID”.

In the case of `CC#C[C@]1(O)CC[C@H]2[C@@H]3CCC4=CC(=O)CCC4=C3[C@@H](c3ccc(N(C)C)cc3)C[C@@]21C` [RU486], the “inducible level of hGH in the transgenic heart versus the basal level” value [3] is reported as 100 to 1000 fold.

For ceramide, the “induction of caspase 3 activation and cellular apoptosis” value (caspase 3) was “strongly induced caspase 3 activation”.

In the case of Z-VAD, the “130 kDa ROCK1 species in presence of caspase 3 inhibitor” value (ROCK1; doxorubicin-treated myocytes plus inhibitor) is reported as “not detected; also recorded: blocked the cleavage”.

For `C[C@@H](N)[C@H]1CC[C@H](C(=O)Nc2ccncc2)CC1` [Y27632], the “inhibition activity against MBP-kinase” value [4] is given as “inhibition activity”, the “expression of cardiac α-actin (early cardiac differentiation marker)” value (early chick embryos) is given as “precocious expression of cardiac α-actin was observed” and the “affinity for protein kinases A and C relative to Rho kinase” value (protein kinases A and C) is given as “about 200 times”. For the same molecule, the “effect on cardiac hypertrophy and remodeling” value [5] was “regression of cardiac hypertrophy and decreased pathological remodeling”.

Source: US20060142193A1, “Selective inhibition of rock1 in cardiac therapy” (BAYLOR COLLEGE OF MEDICINE, priority 2004, published 2006)
